The source of these data is patent US9067926B2, “Fluoromethyl-5,6-dihydro-4H-[1,3]OXAZINES” (F. Hoffmann-La Roche AG, priority 2012, dated 2015).

For one series, the target named is hERG (Homo sapiens, UniProt Q12809). The series is described as follows: hERG current measurement (automated patch clamp). The format is cell-based. The method, then:
The hERG current measurement was performed at an automated patch clamp system following the procedure described in R. E. Martin et al. in Bio org.

For another series, the system named is Aβ40 in brain. The series is described as follows: In vivo inhibition of Aβ40 in brain of wild-type mice. The settings on record: Mus musculus, po; 10 mg/kg p.o., brain Aβ40 after 4 h, female C57Bl/6J mice; read-out: in vivo effect, Percentage of control @ 10 mg/kg p.o. The method, then: In Vivo Experiments. […] The test compound was dissolved in 5% EtOH, 10% Solutol and was applied per os at 10 ml/kg. After 4 h the animals were sacrificed and brain and plasma were collected. The brain was cut into halves and immediately frozen on dry ice. Brain was used for measurement of Aβ40 and plasma was used for determination of compound exposure. […] Brain tissue was homogenized in 2% DEA buffer in a Roche […] (20'', 4000 rpm) and subsequently centrifuged for 1 h at 100'000 g. DEA was reduced to 0.2% in 50 mM NaCl and one half of the DEA lysate was passed over an Oasis Solid Phase extraction plate (Waters; Cat.Nr. 186000679) which had been activated with MeOH and equilibrated in dH2O (1 ml each). After washes in 10% and 30% MeOH (1 ml each) the AP-peptides were eluted in 0.8 ml 2% NH4OH in 90% MeOH. […] Aβ40 was determined by an AlphaLISA assay (Perkin Elmer). In a white 96well half-area microplate (Perkin Elmer Cat.Nr. 6005561), 20 μl of the reconstituted sample were mixed with 5 μl biotinylated BAP-24 (specific for C-terminus of Aβ40 (Brockhaus, M.; Grunberg, J.; Rohrig, S.; Loetscher, H.; Wittenburg, N.; Baumeister, R.; Jacobsen, […]. Caspase-mediated cleavage is not required for the activity of presenilins in amyloidogenesis and NOTCH signaling. […] The mix was incubated for 1 h at RT in the dark. Then 20 μl Streptavin-coated Donor Beads (Perkin Elmer Cat. Nr. 6760002, final dilution 1:125) were added and this final mix was incubated in the dark for another 30 min at r.t. before RFU was measured in an AlphaScreen Reader(Perkin Elmer Envision 2104).

The target in a further series is T1, CYP3A4 (Homo sapiens, UniProt P08684).
T1 construct: 0.2 mg/ml pooled human liver microsomes; from tissue; host or cells: pooled human liver microsomes
T1 sequence (P08684 whole entry): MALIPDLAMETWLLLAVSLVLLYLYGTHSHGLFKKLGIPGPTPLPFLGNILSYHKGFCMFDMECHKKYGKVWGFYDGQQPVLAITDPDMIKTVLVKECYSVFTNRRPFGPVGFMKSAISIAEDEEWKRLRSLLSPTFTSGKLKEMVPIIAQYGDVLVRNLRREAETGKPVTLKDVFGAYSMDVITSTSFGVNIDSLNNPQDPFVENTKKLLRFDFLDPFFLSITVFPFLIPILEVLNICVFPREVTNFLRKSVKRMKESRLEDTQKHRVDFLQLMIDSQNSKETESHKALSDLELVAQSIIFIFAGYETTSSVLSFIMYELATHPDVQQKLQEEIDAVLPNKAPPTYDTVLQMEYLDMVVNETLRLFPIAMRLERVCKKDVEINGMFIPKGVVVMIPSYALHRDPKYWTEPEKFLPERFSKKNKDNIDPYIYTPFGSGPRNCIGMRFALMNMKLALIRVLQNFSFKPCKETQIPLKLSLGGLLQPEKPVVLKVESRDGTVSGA
The series is described as follows: CYP inhibition assay, CYP3A4. The format is in vitro ADME. The settings on record: pooled human liver microsomes, midazolam substrate; read-out: CYP IC50 3A4. The method, then:
(§1) Inhibition of cytochromes P450 (CYPs) 2C9, 2D6 and 3A4 was assessed using human liver microsomes and CYP-selective substrate metabolism reactions. […] Quenched incubates were stored at −20° C. for at least 1 hour before centrifugation (20,000×g, 20 minutes). Supernatants were removed and diluted 1:1 with water prior to analysis using a RapidFire sample injector system and API4000 mass spectrometer. Peak areas for substrate, metabolite and stable-labelled metabolite standard were determined using MS/MS. The peak area ratios between the metabolite generated by the enzymatic reaction and the internal standard were used in subsequent calculations. The percentage of (DMSO) control activity was calculated for each incubate and IC50 values estimated by non-linear regression. Sulfaphenazole, quinidine or ketoconazole were tested in each CYP2C9, CYP2D6 or CYP3A4 inhibition experiment, respectively, to ensure assay sensitivity and reproducibility.

The target in another series is T2, CYP2D6 (Homo sapiens, UniProt P10635).
T2 construct: 0.2 mg/ml pooled human liver microsomes; from tissue; host or cells: pooled human liver microsomes
T2 sequence (P10635 whole entry): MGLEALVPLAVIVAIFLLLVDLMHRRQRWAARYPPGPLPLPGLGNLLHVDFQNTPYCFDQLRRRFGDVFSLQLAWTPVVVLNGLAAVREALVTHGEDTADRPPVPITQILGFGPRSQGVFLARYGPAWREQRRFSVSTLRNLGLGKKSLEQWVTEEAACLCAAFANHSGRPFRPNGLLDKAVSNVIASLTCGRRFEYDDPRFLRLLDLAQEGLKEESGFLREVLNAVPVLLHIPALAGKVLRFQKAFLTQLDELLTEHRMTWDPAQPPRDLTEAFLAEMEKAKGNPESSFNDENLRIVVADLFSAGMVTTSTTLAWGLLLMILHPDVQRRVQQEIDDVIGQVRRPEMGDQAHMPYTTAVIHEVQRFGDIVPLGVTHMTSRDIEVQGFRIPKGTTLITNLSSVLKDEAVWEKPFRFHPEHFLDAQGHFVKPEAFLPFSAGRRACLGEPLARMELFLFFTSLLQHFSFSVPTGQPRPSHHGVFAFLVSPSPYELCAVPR
Nature of the series: CYP inhibition assay, CYP2D6. The format is in vitro ADME. The settings on record: pooled human liver microsomes, dextromethorphan substrate; read-out: CYP IC50 2D6. The procedure:
as §1

The target of series [1] is T3, recombinant human cathepsin E (Homo sapiens, UniProt P14091).
T3 construct: purchased R&D Systems
T3 sequence (P14091 54-396): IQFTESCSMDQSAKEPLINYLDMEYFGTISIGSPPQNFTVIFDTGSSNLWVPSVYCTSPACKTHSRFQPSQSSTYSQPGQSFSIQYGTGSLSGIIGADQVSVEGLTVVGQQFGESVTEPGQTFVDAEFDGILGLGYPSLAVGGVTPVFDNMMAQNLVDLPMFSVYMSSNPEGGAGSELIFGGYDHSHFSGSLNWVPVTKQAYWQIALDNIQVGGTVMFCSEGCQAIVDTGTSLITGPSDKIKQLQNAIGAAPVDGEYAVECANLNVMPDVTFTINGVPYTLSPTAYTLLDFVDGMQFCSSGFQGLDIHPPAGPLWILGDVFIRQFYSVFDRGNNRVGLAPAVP
The series is described as follows: Cathepsin E fluorescent substrate kinetic assay. The format is biochemical. The conditions noted are these: pH 4.5. From the text: (§2) Cathepsin D and Cathepsin E Fluorescent Substrate Kinetic Assays
(§3) The MR121 fluorescence assays described below are based on the fact that MR121 forms a non-fluorescent ground state complex with tryptophan. In solution this formation occurs at millimolar concentrations of tryptophan. The mechanism can be used to design a generic biochemical assay for proteases. […] In absence of protease activity, the substrates remain intact and the MR121 fluorescence is reduced by the high local Trp-concentration. If the substrates are cleaved by the enzymes the MR121 fluorescence is recovered.
(§4) The fluorescent substrate cathepsin D and cathepsin E kinetic assays were performed at room temperature in 384-well microtiter plates (black with clear flat bottom, non binding surface plates from Corning) in a final volume of 51 μl. The test compounds were serially diluted in DMSO (15 concentrations, 1/3 dilution steps) and 1 μl of diluted compounds were mixed for 10 min with 40 μl of cathepsin D (from human liver, Calbiochem) diluted in assay buffer (100 mM sodium acetate, 0.05% BSA, pH 5.5; final concentration: 200 nM) or with 40 μl of recombinant human cathepsin E (R&D Systems) diluted in assay buffer (100 mM sodium acetate, 0.05% BSA, pH 4.5; final concentration: 0.01 nM). […] The slope in the linear range of the kinetic was calculated and the IC50 of the test compounds were determined using a four parameter equation for curve fitting.

A further series addresses T4, CYP2C9 (Homo sapiens, UniProt P11712).
T4 construct: 0.2 mg/ml pooled human liver microsomes; from tissue; host or cells: pooled human liver microsomes
The series is described as follows: CYP inhibition assay, CYP2C9. Type of series: in vitro ADME. The conditions noted are these: pooled human liver microsomes, diclofenac substrate; read-out: CYP IC50 2C9. The procedure:
as §1

Series [2] has as its target T5, cathepsin D (from human liver) (Homo sapiens, UniProt P07339).
T5 construct: cathepsin D (from human liver, Calbiochem) diluted in assay buffer; purchased Calbiochem; host or cells: human liver
Nature of the series: Cathepsin D fluorescent substrate kinetic assay. Type of series: biochemical. The settings on record: pH 5.5.
From the text: as §2, §3, §4

A short description of series [3]: Detection of glutathione conjugates (GSH). The conditions noted are these: in vitro, relative to control. Type of series: in vitro ADME, human. Also noted: key: NF = in vitro no adduct formation relative to control. From the text:
Detection of Glutathione Conjugates (GSH) The assay conditions for the detection of glutathione conjugates follow the procedure described by C. M. Dieckhaus et al. in Chem. Res. Toxicol. 2005, 18, 630-63.

Another series concerns the target T6, BACE1 (Homo sapiens, UniProt P56817).
T6 construct: endogenous in cells; host or cells: HEK293 APP cells
Nature of the series: Cellular Aβ-lowering assay (Abeta 40 AlphaLISA). Type of series: cell-based. The conditions noted are these: HEK293 APP cells, 18-20 hrs incubation, Aβ 40 in culture supernatant; read-out: BACE1 cell act. Aβ40 IC50. The method, then:
Cellular Aβ-Lowering Assay:
The Abeta 40 AlphaLISA Assay can be used. The HEK293 APP cells were seeded in 96 well Microtiter plates in cell culture medium (Iscove's, plus 10% (vv) fetal bovine serum, penicillinstreptomycin) to about 80% confluency and the compounds were added at a 3× concentration in 13 volume of culture medium (final DMSO concentration was kept at 1% vv). After 18-20 hrs incubation at 37° C. and 5% CO2 in a humidified incubator, the culture supernatants were harvested for the determination of Aβ 40 concentrations using Perkin-Elmer Human Amyloid beta 1-40 (high specificity) Kit (Cat# AL275C).
Levels of Aβ 40 in the culture supernatants were calculated as percentage of maximum signal (cells treated with 1% DMSO without inhibitor). The IC50 values were calculated using the Excel XLfit software.

T6 sequence (P56817 46-501): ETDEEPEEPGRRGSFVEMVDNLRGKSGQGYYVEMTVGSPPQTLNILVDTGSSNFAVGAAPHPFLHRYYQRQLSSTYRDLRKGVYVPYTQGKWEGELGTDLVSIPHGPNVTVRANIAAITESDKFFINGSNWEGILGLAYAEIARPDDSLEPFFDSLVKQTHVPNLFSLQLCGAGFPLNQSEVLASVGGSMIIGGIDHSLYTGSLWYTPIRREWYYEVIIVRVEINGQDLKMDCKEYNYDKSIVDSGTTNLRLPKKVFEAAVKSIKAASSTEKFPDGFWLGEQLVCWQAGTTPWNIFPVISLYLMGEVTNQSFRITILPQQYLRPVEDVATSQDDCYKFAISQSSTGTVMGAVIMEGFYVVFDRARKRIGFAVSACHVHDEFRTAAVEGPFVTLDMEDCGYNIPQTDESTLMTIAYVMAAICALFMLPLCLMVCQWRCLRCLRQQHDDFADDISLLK
T5 sequence (P07339 65-412): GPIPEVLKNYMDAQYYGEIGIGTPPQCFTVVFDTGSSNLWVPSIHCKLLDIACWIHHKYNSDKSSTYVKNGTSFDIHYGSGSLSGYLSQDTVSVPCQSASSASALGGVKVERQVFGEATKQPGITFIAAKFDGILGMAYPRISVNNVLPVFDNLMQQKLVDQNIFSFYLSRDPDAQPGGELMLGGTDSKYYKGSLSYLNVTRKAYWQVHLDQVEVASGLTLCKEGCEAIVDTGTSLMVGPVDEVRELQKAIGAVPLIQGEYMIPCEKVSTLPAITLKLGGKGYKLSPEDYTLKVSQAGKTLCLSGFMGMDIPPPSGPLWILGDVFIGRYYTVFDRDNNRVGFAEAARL
T4 sequence (P11712 whole entry): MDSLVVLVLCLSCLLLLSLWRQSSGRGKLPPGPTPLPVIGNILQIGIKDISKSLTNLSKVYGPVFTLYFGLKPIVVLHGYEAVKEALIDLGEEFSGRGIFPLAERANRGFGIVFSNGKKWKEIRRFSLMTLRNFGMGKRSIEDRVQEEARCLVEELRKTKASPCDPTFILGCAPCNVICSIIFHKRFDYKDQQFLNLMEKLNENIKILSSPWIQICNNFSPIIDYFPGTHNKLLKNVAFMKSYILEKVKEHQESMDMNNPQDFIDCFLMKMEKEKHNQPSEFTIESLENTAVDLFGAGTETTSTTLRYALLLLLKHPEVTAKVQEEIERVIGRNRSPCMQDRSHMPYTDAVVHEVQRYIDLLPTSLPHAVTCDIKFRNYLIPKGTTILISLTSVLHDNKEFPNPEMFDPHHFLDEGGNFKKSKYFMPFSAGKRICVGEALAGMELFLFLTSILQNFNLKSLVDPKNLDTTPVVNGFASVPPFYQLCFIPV
Sequence of hERG (Q12809 whole entry): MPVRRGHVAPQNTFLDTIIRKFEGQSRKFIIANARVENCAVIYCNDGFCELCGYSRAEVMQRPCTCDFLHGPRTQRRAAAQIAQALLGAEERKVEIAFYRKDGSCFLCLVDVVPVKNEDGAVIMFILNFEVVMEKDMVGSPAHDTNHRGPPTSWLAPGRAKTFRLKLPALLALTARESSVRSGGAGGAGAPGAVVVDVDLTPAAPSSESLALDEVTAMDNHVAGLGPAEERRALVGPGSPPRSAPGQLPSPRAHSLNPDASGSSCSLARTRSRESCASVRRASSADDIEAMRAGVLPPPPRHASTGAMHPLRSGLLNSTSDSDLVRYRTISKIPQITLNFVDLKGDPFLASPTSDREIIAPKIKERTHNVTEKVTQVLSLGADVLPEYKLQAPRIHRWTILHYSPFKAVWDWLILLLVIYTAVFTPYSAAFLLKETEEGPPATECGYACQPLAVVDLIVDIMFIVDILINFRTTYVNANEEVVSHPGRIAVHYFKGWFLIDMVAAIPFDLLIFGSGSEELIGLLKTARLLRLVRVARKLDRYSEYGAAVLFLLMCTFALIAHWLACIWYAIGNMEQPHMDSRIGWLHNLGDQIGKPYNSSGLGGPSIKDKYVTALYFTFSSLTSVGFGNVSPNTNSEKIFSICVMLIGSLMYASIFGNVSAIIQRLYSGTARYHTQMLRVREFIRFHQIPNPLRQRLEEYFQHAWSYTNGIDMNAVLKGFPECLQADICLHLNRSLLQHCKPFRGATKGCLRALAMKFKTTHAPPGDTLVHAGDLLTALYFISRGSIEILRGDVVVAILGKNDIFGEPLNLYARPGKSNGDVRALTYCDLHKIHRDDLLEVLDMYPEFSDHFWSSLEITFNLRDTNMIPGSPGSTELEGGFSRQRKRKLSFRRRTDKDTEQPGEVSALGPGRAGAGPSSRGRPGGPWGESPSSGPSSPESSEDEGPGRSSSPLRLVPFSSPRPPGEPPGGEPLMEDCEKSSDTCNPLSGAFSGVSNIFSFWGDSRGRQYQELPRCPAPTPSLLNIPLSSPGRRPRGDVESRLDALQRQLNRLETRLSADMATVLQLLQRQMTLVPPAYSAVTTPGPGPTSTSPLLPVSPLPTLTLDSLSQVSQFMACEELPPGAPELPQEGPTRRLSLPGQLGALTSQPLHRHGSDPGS

On to `COc1cnc(C(=O)Nc2ccc(F)c([C@]3(CF)C[C@@H](C(F)(F)F)OC(N)=N3)c2)cn1` [Example 36, N-(3-((4S,6S)-2-Amino-4-(fluoromethyl)-6-(trifluoromethyl)-5,6-dihydro-4H-1,3-oxazin-4-yl)-4-fluorophenyl)-5-methoxypyrazine-2-carboxamide], for which the “hERG Inhibition @ 10 μM” value on hERG is on record as 7. In addition, the response vs control in vivo at 10 mg/kg with Aβ40 in brain is 88%. Moreover, the IC50 on CYP3A4 was more than 50000 nM; on CYP2D6, 16000 nM; in series [1] it was more than 200000 nM; at CYP2C9 it was more than 50000 nM; in [2], more than 200000 nM. Moreover, in series [3], the “GSH human (glutathione adduct formation)” value is “NF”.

In the case of `N#Cc1ccc(C(=O)Nc2ccc(F)c([C@]3(CF)C[C@@H](C(F)(F)F)OC(N)=N3)c2)nc1` [Example 3, N-(3-((4S,6S)-2-amino-4-(fluoromethyl)-6-(trifluoromethyl)-5,6-dihydro-4H-1,3-oxazin-4-yl)-4-fluorophenyl)-5-cyanopicolinamide], the IC50 in [1] and in series [2] was more than 200000 nM throughout.

Consider `C[C@@]1(c2cc(NC(=O)c3cnc(OCC(F)F)cn3)ccc2F)C[C@@H](C(F)(F)F)OC(N)=N1` [Example 6, N-(3-((4S,6S)-2-amino-4-methyl-6-(trifluoromethyl)-5,6-dihydro-4H-1,3-oxazin-4-yl)-4-fluorophenyl)-5-(2,2-difluoroethoxyl)pyrazine-2-carboxamide], for which, on BACE1, the half-inhibitory concentration (IC50) worked out at 24 nM. Still for that read-out and setting: the figure for `C[C@@]1(c2cc(NC(=O)c3ccc(Cl)cn3)ccc2F)C[C@H](C(F)(F)F)OC(N)=N1` [Example 9, N-(3-((4S,6R)-2-Amino-4-methyl-6-(trifluoromethyl)-5,6-dihydro-4H-1,3-oxazin-4-yl)-4-fluorophenyl)-5-chloropicolinamide] is 710 nM; for `CC#CCOc1cnc(C(=O)Nc2ccc(F)c([C@]3(CF)C[C@@H](C(F)(F)F)OC(N)=N3)c2)cn1` [Example 38, N-(3-((4S,6S)-2-Amino-4-(fluoromethyl)-6-(trifluoromethyl)-5,6-dihydro-4H-1,3-oxazin-4-yl)-4-fluorophenyl)-5-(but-2-ynyloxy)pyrazine-2-carboxamide] it is 0.6 nM; for `C[C@@]1(c2cc(NC(=O)c3ncc(Cl)cc3Cl)ccc2F)C[C@@H](C(F)(F)F)OC(N)=N1` [Example 10, N-(3-((4S,6S)-2-Amino-4-methyl-6-(trifluoromethyl)-5,6-dihydro-4H-1,3-oxazin-4-yl)-4-fluorophenyl)-3,5-chloropicolinamide] it is 6 nM. On the same count and under the same terms, as for `C[C@@]1(c2cc(NC(=O)c3cnc(OCC(F)(F)F)cn3)ccc2F)C[C@@H](C(F)(F)F)OC(N)=N1` [Example 7, N-(3-((4S,6S)-2-amino-4-methyl-6-(trifluoromethyl)-5,6-dihydro-4H-1,3-oxazin-4-yl)-4-fluorophenyl)-5-(2,2,2-trifluoroethoxyl)pyrazine-2-carboxamide], the figure is 15 nM; as for `N#Cc1ccc(C(=O)Nc2ccc(F)c([C@]3(C(F)F)C[C@H](C(F)(F)F)OC(N)=N3)c2)nc1` [Example 48, N-(3-((4S,6R)-2-Amino-4-(difluoromethyl)-6-(trifluoromethyl)-5,6-dihydro-4H-1,3-oxazin-4-yl)-4-fluorophenyl)-5-cyanopicolinamide], 520 nM.

`C[C@@]1(c2cc(NC(=O)c3ccc(C(F)F)cn3)ccc2F)C[C@@H](C(F)(F)F)OC(N)=N1` [Example 17, N-(3-((4S,6S)-2-Amino-4-methyl-6-(trifluoromethyl)-5,6-dihydro-4H-1,3-oxazin-4-yl)-4-fluorophenyl)-5-(difluoromethyl)picolinamide]: the IC50 on BACE1 is 2 nM. For the compound `C[C@@]1(c2cc(NC(=O)c3cnc(CF)cn3)ccc2F)C[C@@H](C(F)(F)F)OC(N)=N1` [Example 19, N-(3-((4S,6S)-2-Amino-4-methyl-6-(trifluoromethyl)-5,6-dihydro-4H-1,3-oxazin-4-yl)-4-fluorophenyl)-5-(fluoromethyl)pyrazine-2-carboxamide], on BACE1, the IC50 is 6 nM. Take `NC1=N[C@](CF)(c2cc(NC(=O)c3cnc(C(F)F)cn3)ccc2F)C[C@@H](C(F)(F)F)O1` [Example 45, N-(3-((4S,6S)-2-Amino-4-(fluoromethyl)-6-(trifluoromethyl)-5,6-dihydro-4H-1,3-oxazin-4-yl)-4-fluorophenyl)-5-(difluoromethyl)pyrazine-2-carboxamide]: on BACE1, the IC50 worked out at 39 nM. Take `C[C@@]1(c2cc(NC(=O)c3ccc(OC(F)F)cn3)ccc2F)C[C@@H](C(F)(F)F)OC(N)=N1` [Example 15, N-(3-((4S,6S)-2-Amino-4-methyl-6-(trifluoromethyl)-5,6-dihydro-4H-1,3-oxazin-4-yl)-4-fluorophenyl)-5-(difluoromethoxy)picolinamide]: the half-inhibitory concentration (IC50) on BACE1 was 1 nM. Turning to `NC1=N[C@](CF)(c2cc(NC(=O)c3cnc(CF)cn3)ccc2F)C[C@@H](C(F)(F)F)O1` [Example 37, N-(3-((4S,6S)-2-Amino-4-(fluoromethyl)-6-(trifluoromethyl)-5,6-dihydro-4H-1,3-oxazin-4-yl)-4-fluorophenyl)-5-(fluoromethyl)ypyrazine-2-carboxamide], the half-maximal inhibitory concentration (IC50) at BACE1 was 53 nM.
